According to US9714260B2, “Asymmetrical Si rhodamine and rhodol synthesis” (THE UNIVERSITY OF TOKYO, priority 2013, dated 2017):

Legend:
[1] = Optical characteristics / pH profile of N-AcSi-Rhodol (Compound 9); assay type: physicochemical
Description: Measurement was carried out at various pH in 0.1M sodium phosphate solution containing 10% DMSO. The excitation wavelength was 503 nm.

[2] = Optical characteristics of Compound 10 and predicted compound after reaction with active oxygen; assay type: physicochemical; settings: 1 μM in PBS (pH 7.4), 0.1% DMF
Description: The absorbance and fluorescence spectra (left side of FIG. 19) of 1 μM of compound 10 in PBS (pH 7.4) containing 0.1% DMF as a cosolvent, the absorbance and fluorescence spectra (right side of FIG. 19) of the compound predicted to be generated following a reaction of compound 10 and 1 μM active oxygen, and the optical characteristics of each compound were measured (Table 9).

[3] = Reactivity and selectivity of Compound 10 toward active-oxygen species
Description: Next, an analysis was carried out using the HPLC of a reaction induced by an active-oxygen-species. […] A sample was subjected to HPLC linear gradient elution (eluate: A/B=60/40—10 minutes—0/100; flow rate=1.0 mL/minute). Next, the selectivity of active-oxygen species of compound 10 was examined. The conditions of various active-oxygen species were as follows. H2O2: […] ONOO^−: […] O2^−: […] Hydroxy radical: H2O2 (final 1 mM) and FeClO4 (final 100 μM) were added.

HL60 cells = experiment: Cell-imaging experiment using HL60 cells; assay type: cell-based; settings: 1 μM probe, 1 mM H2O2 stimulation, 45 minutes
Description: HL60 cells were cultured. […] The fluorescence image was observed thereafter.

[4] = Optical characteristics of dyes in phosphate buffered saline of pH 7.4; assay type: physicochemical
rat liver microsomes = experiment: In vitro experiment using rat liver microsomes (hypoxia vs normal oxygen); assay type: biochemical; settings: 1 μM compound, 226 μg rat liver microsomes, 50 μM NADPH; ex 640 nm, em 660 nm
Text: The excitation wavelength was 640 nm and the fluorescence wavelength was 660 nm. In FIG. 26, Hyp is the measurement result for hypoxia and Nor is the measurement result for normal oxygen level.

[5] = in water; cited from earlier work
[6] = in methanol; cited from earlier work

CC(=O)Nc1ccc2c(c1)[Si](C)(C)C1=CC(=O)C=CC1=C2c1ccccc1C [Compound 9, N-AcSi-Rhodol]
λabs ([1]; 0.1M sodium phosphate, 10% DMSO): 455 nm
λem ([1]; 0.1M sodium phosphate, 10% DMSO, excitation 503 nm): 590 nm
λabs ([1]; 0.1M sodium phosphate, 10% DMSO, listed as N-AcSi-Rhodol): ~450 nm
ΦFL ([1]; pH: 7.4): 0.17 (pH: 7.4)
ε ([1]; pH: 10.0): 7000 (pH: 10.0) M^−1cm^−1

CC/[N+](=C1\C=CC2=C(c3ccccc3C)c3cc4c(cc3[Si](C)(C)C2=C1)N(C)CC4)c1ccc(O)cc1 [Compound 10, 2MeIndo-N-ethyl-phenol-SiR]
Absmax [2]: 670 nm
selectivity of active-oxygen species ([3]; H2O2, −OCl, ONOO−, O2−, hydroxy radical): reacted selectively with ^−OCl and ONOO^−
reaction with −OCl (HPLC, ESI-MS analysis) ([3]; −OCl): produce the predicted reactant
increase in fluorescence after reaction with active-oxygen species ([3]; −OCl and ONOO−): 100 times
increase in fluorescence inside cells relative to no stimulation (HL60 cells): about four

Cc1ccccc1C1=c2cc3c(cc2[Si](C)(C)c2cc(/N=N/c4ccc(N(C)C)cc4)ccc21)=[N+](C)CC3 [Compound 11, 2MeazoSiR650]
Φn (absolute fluorescence quantum yield measured using integrating spheres) [4]: <0.001
λabs. max [4]: 590 nm
change in fluorescence intensity in a hypoxic environment (rat liver microsomes): dramatic increase in fluorescence intensity

Cc1cccc(C)c1C1=c2cc3c(cc2[Si](C)(C)c2cc(N)ccc21)=[N+](C)CC3 [Compound 13, diMeSiR650]
Φn (absolute fluorescence quantum yield measured using integrating spheres) [4]: 0.15
λabs. max [4]: 637 nm
λfl. max [4]: 670 nm

Cc1cccc(C)c1C1=c2cc3c(cc2[Si](C)(C)c2cc(/N=N/c4ccc(N(C)C)cc4)ccc21)=[N+](C)CC3 [Compound 14, diMeazoSiR650]
Φn (absolute fluorescence quantum yield measured using integrating spheres) [4]: 0.002
λabs. max [4]: 587 nm
change in fluorescence intensity in a hypoxic environment (rat liver microsomes): dramatic increase in fluorescence intensity

CCN1\C(=C/C=C/C=C/C2=[N+](CCCCCC(=O)O)c3ccc4c(S(=O)(=O)O)cc(S(=O)(=O)O)cc4c3C2(C)C)C(C)(C)c2c1ccc1c(S(=O)(=O)[O-])cc(S(=O)(=O)O)cc21 [Cy 5.5]
ΦFl of fluorescence reference [5]: 0.23

Cresyl violet
Φfl of fluorescence reference [6]: ^bCresyl violet in methanol (Φfl = 0.54) was used as the fluorescence reference
